Values joined by “and” are separate entries in the source; they are usually repeats but may differ in a detail not shown here. Equal values may be shown once.
Assays:
tomato = assay: Experimental Example 3: Efficacy test on tomato for other drugs (emulsion and oil-based formulation); type: in vivo; parameters: key: an area in which the surface of tomato was colored in pink was 10% or less; an area in which the surface of tomato was completely colored in red was 10 to 40%; 2: an area in which the surface of tomato was completely colored in red was 40 to 70%; 3: an area in which the surface of tomato was completely colored in red was 70% or more and the bottom area remained green; 4: an area in which the surface of tomato was most colored in red and only a part of (0 to 10%) the bottom area remained green; 5: the surface of tomato did not entirely color in green; conditions: individual tomatoes n=4
Protocol: At this time, the tops of tomatoes most early turned red, while the bottoms thereof most lately turned red. For this reason, in order to accurately evaluate the difference in reddening, the coloring evaluated was based on the area of red color, rather than the color of tomatoes. […] Accordingly, the grade level is proportional to the rate at which the tomatoes ripened.
1.0 mM emulsions and oil-based formulations of four agents, i.e., 1-(2-(4-methoxyphenyl)ethyl)cyclopropene, 1-(3-(4-methoxyphenyl)propyl)cyclopropene, 1-(3-phenoxypropyl)cyclopropene and 1-(4-phenoxybutyl)cyclopropene were prepared in accordance with Examples 1 and 2.
The tomatoes were screened in the same manner as in Experimental Example 1 and divided into 9 groups (n=4), i.e., a non-treated group and 4 emulsion-type agent groups and 4 oil-based formulation-type agent groups. Tomatoes were treated with the previously prepared agent using a household sprayer such that the surface thereof was saturated. The tomatoes were stood at room temperature (25-30° C.) for 3 days and a reddening level thereof was evaluated based on grades of 0 to 5.

[1] = Relative chemical stability of cyclopropenes measured by 1H-NMR; type: physicochemical; conditions: 1H-NMR, CDCl3, stored at −20° C. or room temperature; relative to chain length 1
From the text: A variety of analysis methods can be used to analyze the derivatives of Formula 6, since the absorbance of cyclopropenes containing an aryl group can be easily measured in the UV range. It can be confirmed that the chemical stability of the derivatives increases, when the length of chains to link an aryl ring to a cyclopropene ring is 2 or more. […] It is supposed that the stability of cyclopropenes increase due to the fact that π electrons of aryl groups affect π electrons of cyclopropenes.
The following Table 1 summarizes the relative chemical stability of cyclopropenes having a chain length of 2, 3, 4 or 5, based on the chemical stability of cyclopropenes having a chain length of 1. In the case of cyclopropene having a chain length of 1, the structure thereof can be confirmed via ^1H-NMR within one hour following synthesis (degraded to a level of 50% or more within one hour at 30° C.). In the case of cyclopropene having a chain length of zero, synthesis thereof was attempted in accordance with the present invention, but was impossible by a conventional method. Meanwhile, in the case of cyclopropenes having a chain length of 2 or more, the structure thereof can be precisely confirmed by ^1H-NMR as well as ^13C-NMR. The stability of these cyclopropenes was measured by ^1H-NMR while NMR cells (CDCl3) were stored at −20° C. or room temperature. In particular, cyclopropenes having chains of 3 or more were so stable that their half-life reached 5 days or longer at −20° C. or lower. In ^1H-NMR analysis, the stability was evaluated by comparing integral values at 4 to 6.5 ppm (1H) and 0.8 to 0.9 ppm (2H), characteristic peaks of 1-alkylcyclopropenes, using a small amount of 1,1,3,3-tetramethylurea (2.80 ppm) as an internal standard. Furthermore, the stability was also qualitatively evaluated by comparing integral value of the peak newly generated adjacent to the peak of the olefin proton of cyclopropene ring, as a 1-alkylcyclopropene compound is decomposed.

[2] = 1.0 mM Emulsion, Day 0, room temperature (25-30° C.)
[3] = 1.0 mM Emulsion, Day 1, room temperature (25-30° C.)
[4] = 1.0 mM Emulsion, Day 2, room temperature (25-30° C.)
[5] = 1.0 mM Emulsion, Day 3, room temperature (25-30° C.)
[6] = 1.0 mM Oil-based formulation, Day 0, room temperature (25-30° C.)
[7] = 1.0 mM Oil-based formulation, Day 1, room temperature (25-30° C.)
[8] = 1.0 mM Oil-based formulation, Day 2, room temperature (25-30° C.)
[9] = 1.0 mM Oil-based formulation, Day 3, room temperature (25-30° C.)

Stability (relative chemical stability, based on cyclopropenes having a chain length of 1) [1] | SMILES | reddening level (grade 0 to 5) (tomato; [2]) | reddening level (grade 0 to 5) (tomato; [3]) | reddening level (grade 0 to 5) (tomato; [4]) | reddening level (grade 0 to 5) (tomato; [5]) | reddening level (grade 0 to 5) (tomato; [6]) | reddening level (grade 0 to 5) (tomato; [7]) | reddening level (grade 0 to 5) (tomato; [8]) | reddening level (grade 0 to 5) (tomato; [9])
>10 | COc1ccc(CCC2=CC2)cc1 [(2-(4-Methoxyphenyl)ethyl), 1-(2-(4-methoxyphenyl)ethyl)cyclopropene] | 0 (an area in which the surface of tomato was colored in pink was 10% or less) (2×) and 1 (an area in which the surface of tomato was completely colored in red was 10 to 40%) and 2 (an area in which the surface of tomato was completely colored in red was 40 to 70%) | 1 (an area in which the surface of tomato was completely colored in red was 10 to 40%) (2×) and 3 (an area in which the surface of tomato was completely colored in red was 70% or more and the bottom area remained green) (2×) | 3 (an area in which the surface of tomato was completely colored in red was 70% or more and the bottom area remained green) (2×) and 4 and 5 | 4 (2×) and 5 (2×) | 0 (an area in which the surface of tomato was colored in pink was 10% or less) (2×) and 1 (an area in which the surface of tomato was completely colored in red was 10 to 40%) and 2 (an area in which the surface of tomato was completely colored in red was 40 to 70%) | 1 (an area in which the surface of tomato was completely colored in red was 10 to 40%) (2×) and 2 (an area in which the surface of tomato was completely colored in red was 40 to 70%) and 3 (an area in which the surface of tomato was completely colored in red was 70% or more and the bottom area remained green) | 2 (an area in which the surface of tomato was completely colored in red was 40 to 70%) (2×) and 3 (an area in which the surface of tomato was completely colored in red was 70% or more and the bottom area remained green) and 4 | 3 (an area in which the surface of tomato was completely colored in red was 70% or more and the bottom area remained green) (2×) and 4 and 5
>>10 | COc1ccc(CCCC2=CC2)cc1 [(3-(4-Methoxyphenyl)propyl), 1-(3-(4-methoxyphenyl)propyl)cyclopropene] | 0 (an area in which the surface of tomato was colored in pink was 10% or less) (2×) and 1 (an area in which the surface of tomato was completely colored in red was 10 to 40%) and 2 (an area in which the surface of tomato was completely colored in red was 40 to 70%) | 0 (an area in which the surface of tomato was colored in pink was 10% or less) (2×) and 1 (an area in which the surface of tomato was completely colored in red was 10 to 40%) and 2 (an area in which the surface of tomato was completely colored in red was 40 to 70%) | 1 (an area in which the surface of tomato was completely colored in red was 10 to 40%) (2×) and 2 (an area in which the surface of tomato was completely colored in red was 40 to 70%) and 3 (an area in which the surface of tomato was completely colored in red was 70% or more and the bottom area remained green) | 2 (an area in which the surface of tomato was completely colored in red was 40 to 70%) (2×) and 3 (an area in which the surface of tomato was completely colored in red was 70% or more and the bottom area remained green) and 4 | 0 (an area in which the surface of tomato was colored in pink was 10% or less) (2×) and 1 (an area in which the surface of tomato was completely colored in red was 10 to 40%) and 2 (an area in which the surface of tomato was completely colored in red was 40 to 70%) | 0 (an area in which the surface of tomato was colored in pink was 10% or less) (2×) and 1 (an area in which the surface of tomato was completely colored in red was 10 to 40%) and 2 (an area in which the surface of tomato was completely colored in red was 40 to 70%) | 1 (an area in which the surface of tomato was completely colored in red was 10 to 40%) (2×) and 2 (an area in which the surface of tomato was completely colored in red was 40 to 70%) and 3 (an area in which the surface of tomato was completely colored in red was 70% or more and the bottom area remained green) | 1 (an area in which the surface of tomato was completely colored in red was 10 to 40%) and 2 (an area in which the surface of tomato was completely colored in red was 40 to 70%) and 3 (an area in which the surface of tomato was completely colored in red was 70% or more and the bottom area remained green) (2×)
>>10 | C1=C(CCCCOc2ccccc2)C1 [(4-Phenoxybutyl), 1-(4-phenoxybutyl)cyclopropene] | 0 (an area in which the surface of tomato was colored in pink was 10% or less) (2×) and 1 (an area in which the surface of tomato was completely colored in red was 10 to 40%) and 2 (an area in which the surface of tomato was completely colored in red was 40 to 70%) | 0 (an area in which the surface of tomato was colored in pink was 10% or less) (2×) and 2 (an area in which the surface of tomato was completely colored in red was 40 to 70%) (2×) | 1 (an area in which the surface of tomato was completely colored in red was 10 to 40%) (2×) and 3 (an area in which the surface of tomato was completely colored in red was 70% or more and the bottom area remained green) (2×) | 2 (an area in which the surface of tomato was completely colored in red was 40 to 70%) (2×) and 4 (2×) | 0 (an area in which the surface of tomato was colored in pink was 10% or less) (2×) and 1 (an area in which the surface of tomato was completely colored in red was 10 to 40%) and 2 (an area in which the surface of tomato was completely colored in red was 40 to 70%) | 0 (an area in which the surface of tomato was colored in pink was 10% or less) (2×) and 1 (an area in which the surface of tomato was completely colored in red was 10 to 40%) and 2 (an area in which the surface of tomato was completely colored in red was 40 to 70%) | 0 (an area in which the surface of tomato was colored in pink was 10% or less) and 1 (an area in which the surface of tomato was completely colored in red was 10 to 40%) and 2 (an area in which the surface of tomato was completely colored in red was 40 to 70%) (2×) | 1 (an area in which the surface of tomato was completely colored in red was 10 to 40%) (2×) and 3 (an area in which the surface of tomato was completely colored in red was 70% or more and the bottom area remained green) (2×)
